These results are taken from ChEMBL document CHEMBL1201862, “PubChem BioAssay data set” (2004).

Assay in all cases: growth of human tumour cells (NCI), 48 h
For experiment [1], the system named is M14.
Experiment [2] concerns HCT-15.
The subject of experiment [3] is SW-620.
Experiment [4] has as its system K562.
In experiment [5] the test system is EKVX.
Experiment [6] deals with SF-268.
Experiment [7] relates to RXF 393.
The subject of experiment [8] is SK-OV-3.
The test system of experiment [9] is TK-10.
Experiment [10] has as its system CCRF-CEM.
Experiment [11] relates to NCI-H23.
Experiment [12] concerns SK-MEL-5.
Experiment [13] relates to A498.
Experiment [14] concerns OVCAR-3.
In experiment [15] the test system is UACC-257.
In experiment [16] the test system is OVCAR-4.
Experiment [17] has as its system SR.

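The compound was tested at five concentrations on cells cultured in 96-well plates, with a 48-hour exposure period. Here, GI50 denotes the concentration required for 50% inhibition of growth.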 Activity calls are given as the source filed them. No stated cut-off is given here; in the data, active = GI50 up to about 1.1 µM and inactive = higher.

On to `Cn1nc(-c2ccccc2)c(C(=O)/C=C/c2ccc(Cl)cc2)c(N2CCCC2)c1=O`, for which the GI50 in [1] was 5.33 µM (inactive); in [2], 3.75 µM; in [3], 4.02 µM (inactive); in experiment [4], 2.66 µM (inactive); in experiment [5] it was 11.7 µM (inactive); in experiment [6], 4.61 µM (inactive). The GI50 in experiment [7] was 2.63 µM (inactive); in experiment [8], 4.99 µM (inactive); in experiment [9] it was 11.6 µM (inactive); in [10] it was 2.46 µM (inactive); in experiment [11], 2.89 µM (inactive); in experiment [12], 5.46 µM (inactive).
For the compound `COC1(C)CNCC(C)(C)NC(=O)C(C)(OC)CNCC(C)(C)NC1=O` (stereo not given), the GI50 in experiment [1] is > 100 µM (inactive); in [2], greater than 100 µM; in experiment [3] it was 49.4 µM (inactive); in experiment [4], > 100 µM (inactive); in experiment [5] it was > 100 µM (inactive); in experiment [13] it was > 100 µM (inactive). Further, the GI50 in [6], in [7], in experiment [14], in experiment [15], in [8] and in [16] was > 100 µM (inactive) each time. Further, the GI50 in [9], in experiment [10], in experiment [11] and in [12] was > 100 µM (inactive) throughout.
As to `CC1=NN(C(=O)c2ccc(Cl)cc2)C(=O)/C1=C/c1c(O)cc(O)c2ccccc12`, the GI50 in experiment [1], in experiment [3], in experiment [4], in experiment [5], in experiment [13] and in experiment [6] was > 100 µM (inactive) in each case. Besides, the GI50 in experiment [7], in experiment [14], in experiment [15], in experiment [8], in [16] and in experiment [9] was > 100 µM (inactive) in each case. Besides, the GI50 in experiment [10], in [11] and in experiment [12] was > 100 µM (inactive) throughout.
For the compound `CC(=O)Nc1ccc(-c2nnc(SCC(=O)Nc3ccccc3C)o2)cc1`, the GI50 in experiment [1] is 64.9 µM (inactive); in experiment [2] it was 80.2 µM; in experiment [3], > 100 µM (inactive); in experiment [17] it was 55.5 µM (inactive); in [4], 82.6 µM (inactive); in experiment [6], > 100 µM (inactive). The GI50 in experiment [7] was 65.3 µM (inactive); in experiment [14], 74.5 µM (inactive); in experiment [15] it was > 100 µM (inactive); in experiment [8], > 100 µM (inactive); in [16], > 100 µM (inactive); in experiment [9] it was > 100 µM (inactive). Moreover, the GI50 in [10] is 61.7 µM (inactive); in experiment [11], > 100 µM (inactive); in experiment [12] it was 93.1 µM (inactive).
For the compound `Nc1ncnc2c1ncn2C1OC(CSCc2ccc(Cl)cc2)C(O)C1O` (stereo not given), the GI50 is 17.1 µM (inactive) in experiment [1]; 12 µM in experiment [2]; 31.8 µM (inactive) in [3]; 30 µM (inactive) in [4]; 81.7 µM (inactive) in experiment [5]; 23.8 µM (inactive) in [13]. Also, the GI50 in [6] is 40.1 µM (inactive); in experiment [7] it was 21.2 µM (inactive); in experiment [14], 32.1 µM (inactive); in [15], 31.3 µM (inactive); in experiment [8], > 100 µM (inactive); in experiment [16] it was 35.6 µM (inactive). Besides, the GI50 in experiment [9] is 55 µM (inactive); in [10], 31.3 µM (inactive); in experiment [11], 24.2 µM (inactive); in [12] it was 33.8 µM (inactive).
Take `Cn1c(=O)c(C(=O)NC(=O)NCCCCCOC(=O)CCCCCCCCCCC(=O)OCCCCCNC(=O)NC(=O)c2cn(Cc3ccccc3)c(=O)n(C)c2=O)cn(Cc2ccccc2)c1=O`: the GI50 in experiment [1] is > 100 µM (inactive); in [2], greater than 100 µM; in experiment [3], > 100 µM (inactive); in [4], > 100 µM (inactive); in experiment [5], > 100 µM (inactive); in experiment [13] it was > 100 µM (inactive). For the same compound, the GI50 in [6], in experiment [7], in [14], in experiment [15], in experiment [8] and in [16] was > 100 µM (inactive) throughout. The GI50 in [9], in [10], in experiment [11] and in experiment [12] was > 100 µM (inactive) each time.
In the case of `CCC(=O)c1c(NOC2OC(COC(C)=O)C(OC(C)=O)C(OC(C)=O)C2OC(C)=O)nc(OC)n(C)c1=O` (stereo not given), the GI50 in [1] is > 100 µM (inactive); in experiment [2], greater than 100 µM; in [3], > 100 µM (inactive); in experiment [17], > 100 µM (inactive); in experiment [4], > 100 µM (inactive); in [5], > 100 µM (inactive). Besides, the GI50 in [6], in experiment [7], in [16], in experiment [9], in experiment [10] and in experiment [11] was > 100 µM (inactive) throughout. Besides, the GI50 in experiment [12] is > 100 µM (inactive).
In the case of `C=C1C(=O)OC2/C=C(/C)C3CC(O)C(C)(CC(OC(=O)/C(C)=C/C)C12)O3` (stereo not given), the GI50 was 2.91 µM (inactive) in experiment [1]; 1.76 µM in [2]; 1.65 µM (inactive) in experiment [3]; 1.69 µM (inactive) in experiment [4]; 3.86 µM (inactive) in experiment [5]; 10.4 µM (inactive) in experiment [13]. In addition, the GI50 was 4.2 µM (inactive) in experiment [6]; 1.52 µM (inactive) in [7]; 3.78 µM (inactive) in experiment [14]; 4.25 µM (inactive) in experiment [15]; 36.1 µM (inactive) in [8]; 7.55 µM (inactive) in experiment [16]. For the same compound, the GI50 in [9] is 8.24 µM (inactive); in experiment [10] it was 0.508 µM (active); in experiment [11], 4.49 µM (inactive); in [12], 4.68 µM (inactive).
As to `CCOC(=O)NC(=O)c1cn(CCCOC(=O)NCCCCCCNC(=O)OCCCn2cc(C(=O)NC(=O)OCC)c(=O)[nH]c2=O)c(=O)[nH]c1=O`, the GI50 in experiment [1] was 20.4 µM (inactive); in experiment [2], 28.2 µM; in experiment [3] it was 26 µM (inactive); in [4] it was 7.67 µM (inactive); in experiment [5], > 100 µM (inactive); in experiment [13], 22.8 µM (inactive). The GI50 in experiment [7] is > 10 µM (inactive); in experiment [14] it was 17.4 µM (inactive); in experiment [15] it was 19.2 µM (inactive); in experiment [8], 66.1 µM (inactive); in experiment [16], 7.4 µM (inactive); in [9] it was 29.8 µM (inactive). Further, the GI50 was 5.4 µM (inactive) in experiment [10], > 10 µM (inactive) in experiment [11] and 37.5 µM (inactive) in experiment [12].
In the case of `CCOC(=O)C1=C(c2ccccc2)NC(c2ccccc2)=C(C(=O)OCC)c2c1c(=O)cc[nH]c2=O`, the GI50 in [1] was > 100 µM (inactive); in experiment [2] it was greater than 100 µM; in [3], > 100 µM (inactive); in experiment [17] it was 83.8 µM (inactive); in experiment [4], 39.9 µM (inactive); in experiment [6], > 100 µM (inactive). Also, the GI50 in [14] was > 100 µM (inactive); in experiment [15], 99.8 µM (inactive); in experiment [8] it was > 100 µM (inactive); in experiment [16], 92.3 µM (inactive); in experiment [9], > 100 µM (inactive); in experiment [11], 79.4 µM (inactive).
As for `Cn1cc(NC(=O)c2cc(NC(=O)CCCCCC(=O)Nc3cc(C(=O)Nc4cc(C(=O)NCCC(=N)N)n(C)c4)n(C)c3)cn2C)cc1C(=O)NCCC(=N)N`, the GI50 in experiment [1] is > 100 µM (inactive); in experiment [2] it was greater than 100 µM; in [3], > 100 µM (inactive); in experiment [4], 83.6 µM (inactive); in [5], > 100 µM (inactive); in [13], > 100 µM (inactive). The GI50 in experiment [6] is > 100 µM (inactive); in experiment [7] it was > 100 µM (inactive); in experiment [14] it was > 100 µM (inactive); in experiment [15], 27.2 µM (inactive); in experiment [8] it was > 100 µM (inactive); in [16], > 100 µM (inactive). The GI50 in experiment [9] was > 100 µM (inactive); in experiment [10] it was > 100 µM (inactive); in experiment [11], > 100 µM (inactive); in experiment [12], 51.3 µM (inactive).
For the compound `O=C(c1ccccc1)N1C2C3CC(OCc4ccccc4)(OCc4ccccc4)C(O3)C21` (stereo not given), the GI50 in [1] was > 100 µM (inactive); in experiment [2], greater than 100 µM; in [3], > 100 µM (inactive); in experiment [4], 62.2 µM (inactive); in [5] it was > 100 µM (inactive); in experiment [13] it was > 100 µM (inactive). For the same compound, the GI50 in [6], in [7], in experiment [8], in experiment [16], in experiment [9] and in [10] was > 100 µM (inactive) in each case. For the same compound, the GI50 in experiment [11] and in experiment [12] was > 100 µM (inactive) each time.
`COc1cc2c(c(OC)c1OC)-c1ccc(SC)c(=O)cc1[C@@H](NC(=O)c1cccc([N+](=O)[O-])c1)CC2`: the GI50 was 0.0154 µM (active) in experiment [1]; 0.0276 µM (active) in experiment [3]; < 0.01 µM (active) in experiment [4]; 0.0386 µM (active) in experiment [5]; 0.0198 µM (active) in [13]; 0.0214 µM (active) in experiment [6]. The GI50 in [14] is 0.0191 µM (active); in experiment [15] it was < 0.01 µM (active); in experiment [8], 0.021 µM (active); in experiment [16] it was 13.1 µM (inactive); in experiment [9] it was 0.047 µM (active); in experiment [10], 0.0301 µM (active). In addition, the GI50 in experiment [11] is < 0.01 µM (active); in [12], 0.0179 µM (active).
